Columns and labels:
[1] = test system: patients suffering from depression caused by stress or emotional exhaustion; experiment: clinical investigation of LH-RH in patients suffering from depression; type: in vivo, human
Description: Twenty-one patients, suffering from depression caused by stress or emotional exhaustion, were selected for the investigation. Fifteen were female adults, five were male adults and one patient was a young person […]. The latter patient suffered from existential depression and cryptorchidism. Each patient received 300 mcg of LH-RH in a single or divided dose once a month. In this instance the LH-RH was in the form of its hydrochloride acid addition salt and was prepared according to the syntheses reported by Immer et al., noted above. […] Relief from depression usually was observed within 12 hours and in almost all cases within 24 hours. The patients became more cheerful and aware of feeling much better. […] This latter patient sufferred from depression and sexual frigidity; however, in this instance there was no anhedonia regression and some erotic pulsations did occur. […] The greatest hormonal responses coincided with the most evident clinical improvement. In a control study, five patients with established depression were treated with an injection of only the vehicle for the above noted LH-RH dosage.

[2] = test system: patients with endogenous depression; settings: given in randomized order on days 1, 3 and 5; Lancet 1974; cited from earlier work

| Compound | sleep, appetite and disposition for work ([1]; 21 patients, 300 mcg once a month) | time to relief from depression (almost all cases) ([1]; 21 patients, 300 mcg once a month, in almost all cases) [h] | libido response ([1]; 21 patients, 300 mcg once a month, most noticeable in female patients) | time to relief from depression (usually) ([1]; 21 patients, 300 mcg once a month, usually observed) [h] | onset of response after administration ([1]; 21 patients, 300 mcg single or divided dose once a month, hydrochloride salt) | time until symptoms of depression disappear ([1]; 100-800 mcg LH-RH or acid addition salt, moderately to severely depressed patient, usually) [h] | results in stress induced (reactive) depression ([1]; dosages 100-800 mcg, patients suffering from stress induced depression) | hormonal responses: serum levels of luteinizing hormone, follicular stimulating hormone, prolactin and thyrotrophin releasing hormone ([1]; monitored during treatment, greatest responses coincided with most evident clinical improvement) | patients not responding ([1]; of 21 patients, 300 mcg once a month) | gonadotropin response in younger patients (growth of penis, development of scrota) ([1]; younger patients, measured at 30 and 60 days after beginning of treatment) | clinical importance in the treatment of endogenous depression [2] |
| --- | --- | --- | --- | --- | --- | --- | --- | --- | --- | --- | --- |
| CC(C)C[C@H](NC(=O)CNC(=O)[C@H](Cc1ccc(O)cc1)NC(=O)[C@H](CO)NC(=O)[C@H](Cc1c[nH]c2ccccc12)NC(=O)[C@H](Cc1c[nH]cn1)NC(=O)[C@@H]1CCC(=O)N1)C(=O)N[C@@H](CCCNC(=N)N)C(=O)N1CCC[C@H]1C(=O)NCC(N)=O [LH-RH, (pyro)-Glu-His-Trp-Ser-Tyr-Gly-Leu-Arg-Pro-Gly-NH2] | Sleep and appetite were regularized as well as disposition for work | ≤ 24 | An improvement in libido response occurred frequently | ≤ 12 | response was immediate | ≤ 24 | Especially effective and favorable results | increases in the serum levels | Only one patient did not respond | there was a gonadotropin response | of no clinical importance |
| NC(=O)[C@@H]1CCCN1C(=O)[C@H](Cc1cnc[nH]1)NC(=O)[C@@H]1CCC(=O)N1 [thyrotropin releasing hormone] | – | – | – | – | – | – | – | – | – | – | of no clinical importance |
